Data: PubChem BioAssay (NCI)
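A five-concentration, 48-hour dose response in 96-well plates underlies each endpoint, interpolated linearly between surrounding concentrations. Definition used: TGI = concentration required for complete inhibition of growth.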

Legend:
Assay in all cases: inhibition of tumour cell growth, NCI panel, 48 h
M14 melanoma = system: M14 melanoma
SF-539 CNS = system: SF-539 CNS
UACC-257 melanoma = system: UACC-257 melanoma
RPMI-8226 leukemia = system: RPMI-8226 leukemia
SN12C renal = system: SN12C renal
CCRF-CEM leukemia = system: CCRF-CEM leukemia
UO-31 renal = system: UO-31 renal
SK-MEL-2 melanoma = system: SK-MEL-2 melanoma
OVCAR-8 ovarian = system: OVCAR-8 ovarian
NCI-H460 lung = system: NCI-H460 lung
MOLT-4 leukemia = system: MOLT-4 leukemia
SK-MEL-28 melanoma = system: SK-MEL-28 melanoma
SF-295 CNS = system: SF-295 CNS
786-0 renal = system: 786-0 renal
COLO 205 colon = system: COLO 205 colon
CAKI-1 renal = system: CAKI-1 renal
K-562 leukemia = system: K-562 leukemia
SW-620 colon = system: SW-620 colon
A498 renal = system: A498 renal
HCC-2998 colon = system: HCC-2998 colon
SNB-75 CNS = system: SNB-75 CNS
SNB-78 CNS = system: SNB-78 CNS
A549 NSCLC = system: A549 NSCLC
OVCAR-4 ovarian = system: OVCAR-4 ovarian
MALME-3M melanoma = system: MALME-3M melanoma
U251 CNS = system: U251 CNS
ACHN renal = system: ACHN renal
DLD-1 colon = system: DLD-1 colon
M19-MEL melanoma = system: M19-MEL melanoma
HCT-116 colon = system: HCT-116 colon
XF 498 CNS = system: XF 498 CNS
HT29 colon = system: HT29 colon
OVCAR-5 ovarian = system: OVCAR-5 ovarian
SK-OV-3 ovarian = system: SK-OV-3 ovarian
DMS 114 small cell lung = system: DMS 114 small cell lung
HOP-62 NSCLC = system: HOP-62 NSCLC
SNB-19 CNS = system: SNB-19 CNS
NCI-H23 lung = system: NCI-H23 lung
NCI-H522 lung = system: NCI-H522 lung
LXFL 529 NSCLC = system: LXFL 529 NSCLC
OVCAR-3 ovarian = system: OVCAR-3 ovarian
SK-MEL-5 melanoma = system: SK-MEL-5 melanoma
UACC-62 melanoma = system: UACC-62 melanoma
KM12 colon = system: KM12 colon
TK-10 renal = system: TK-10 renal
KM20L2 colon = system: KM20L2 colon
SF-268 CNS = system: SF-268 CNS
EKVX NSCLC = system: EKVX NSCLC
IGROV1 ovarian = system: IGROV1 ovarian
HOP-18 NSCLC = system: HOP-18 NSCLC
HCT-15 colon = system: HCT-15 colon
SR leukemia = system: SR leukemia
LOX IMVI melanoma = system: LOX IMVI melanoma
HOP-92 NSCLC = system: HOP-92 NSCLC
RXF 393 renal = system: RXF 393 renal
HL-60(TB) leukemia = system: HL-60(TB) leukemia
DMS 273 small cell lung = system: DMS 273 small cell lung
NCI-H226 lung = system: NCI-H226 lung

**Q.** What does the source list for `COc1ccc(CCn2c(=O)c3ccccc3n(C)c2=O)cc1`?
**A.** TGI (M14 melanoma): > 100 µM; TGI (SF-539 CNS): > 100 µM; TGI (UACC-257 melanoma): > 100 µM; TGI (RPMI-8226 leukemia): > 100 µM; TGI (SN12C renal): > 100 µM; TGI (CCRF-CEM leukemia): > 100 µM; TGI (UO-31 renal): > 100 µM; TGI (SK-MEL-2 melanoma): 85.6 µM; TGI (OVCAR-8 ovarian): > 100 µM; TGI (NCI-H460 lung): > 100 µM; TGI (MOLT-4 leukemia): > 100 µM; TGI (SK-MEL-28 melanoma): > 100 µM; TGI (SF-295 CNS): > 100 µM; TGI (786-0 renal): > 100 µM; TGI (COLO 205 colon): 50.1 µM; TGI (CAKI-1 renal): > 100 µM; TGI (K-562 leukemia): > 100 µM; TGI (SW-620 colon): > 100 µM; TGI (A498 renal): > 100 µM; TGI (HCC-2998 colon): > 100 µM; TGI (SNB-75 CNS): > 100 µM; TGI (SNB-78 CNS): > 100 µM; TGI (A549 NSCLC): > 100 µM; TGI (OVCAR-4 ovarian): > 100 µM; TGI (MALME-3M melanoma): > 100 µM; TGI (U251 CNS): > 100 µM; TGI (ACHN renal): > 100 µM; TGI (DLD-1 colon): > 100 µM; TGI (M19-MEL melanoma): > 100 µM; TGI (HCT-116 colon): > 100 µM; TGI (XF 498 CNS): > 100 µM; TGI (HT29 colon): > 100 µM; TGI (OVCAR-5 ovarian): > 100 µM; TGI (SK-OV-3 ovarian): > 100 µM; TGI (DMS 114 small cell lung): > 100 µM; TGI (HOP-62 NSCLC): > 100 µM; TGI (SNB-19 CNS): > 100 µM; TGI (NCI-H23 lung): > 100 µM; TGI (NCI-H522 lung): 95.2 µM; TGI (LXFL 529 NSCLC): > 100 µM; TGI (OVCAR-3 ovarian): > 100 µM; TGI (SK-MEL-5 melanoma): > 100 µM; TGI (UACC-62 melanoma): > 100 µM; TGI (KM12 colon): > 100 µM; TGI (TK-10 renal): > 100 µM; TGI (KM20L2 colon): > 100 µM; TGI (SF-268 CNS): > 100 µM; TGI (EKVX NSCLC): > 100 µM; TGI (IGROV1 ovarian): > 100 µM

**Q.** Which TGI (M14 melanoma) does the source give for `Cc1c(NC(=S)NC(=O)c2ccc([N+](=O)[O-])cc2)c(=O)n(-c2ccccc2)n1C` here?
**A.** Its TGI is greater than 100 µM.

**Q.** What about the TGI (SF-539 CNS) of the same compound?
**A.** The TGI was greater than 100 µM.

**Q.** What about the TGI (UACC-257 melanoma) of the same compound?
**A.** Its TGI is greater than 100 µM.

**Q.** And the TGI (RPMI-8226 leukemia)?
**A.** Its TGI is greater than 100 µM.

**Q.** What about the TGI (SN12C renal) of the same compound?
**A.** Its TGI is greater than 100 µM.

**Q.** What about the TGI (CCRF-CEM leukemia) of the same compound?
**A.** Its TGI is greater than 100 µM.

**Q.** And the TGI (UO-31 renal)?
**A.** Its TGI is greater than 100 µM.

**Q.** And the TGI (SK-MEL-2 melanoma)?
**A.** The TGI was greater than 100 µM.

**Q.** And the TGI (OVCAR-8 ovarian)?
**A.** Its TGI is greater than 100 µM.

**Q.** What about the TGI (NCI-H460 lung) of the same compound?
**A.** The TGI was greater than 100 µM.

**Q.** What about the TGI (MOLT-4 leukemia) of the same compound?
**A.** The TGI was greater than 100 µM.

**Q.** And the TGI (SK-MEL-28 melanoma)?
**A.** The TGI was greater than 100 µM.

**Q.** What about the TGI (SF-295 CNS) of the same compound?
**A.** The TGI was greater than 100 µM.

**Q.** What about the TGI (786-0 renal) of the same compound?
**A.** Its TGI is greater than 100 µM.

**Q.** And the TGI (COLO 205 colon)?
**A.** The TGI was greater than 100 µM.

**Q.** And the TGI (CAKI-1 renal)?
**A.** Its TGI is greater than 100 µM.

**Q.** And the TGI (K-562 leukemia)?
**A.** Its TGI is greater than 100 µM.

**Q.** What about the TGI (SW-620 colon) of the same compound?
**A.** Its TGI is greater than 100 µM.

**Q.** And the TGI (A498 renal)?
**A.** The TGI was greater than 100 µM.

**Q.** What about the TGI (HCC-2998 colon) of the same compound?
**A.** Its TGI is greater than 100 µM.

**Q.** And the TGI (SNB-75 CNS)?
**A.** Its TGI is greater than 100 µM.

**Q.** And the TGI (SNB-78 CNS)?
**A.** Its TGI is greater than 100 µM.

**Q.** And the TGI (A549 NSCLC)?
**A.** The TGI was greater than 100 µM.

**Q.** And the TGI (OVCAR-4 ovarian)?
**A.** Its TGI is greater than 100 µM.

**Q.** What about the TGI (HOP-18 NSCLC) of the same compound?
**A.** The TGI was greater than 100 µM.

**Q.** And the TGI (MALME-3M melanoma)?
**A.** The TGI was greater than 100 µM.

**Q.** What about the TGI (U251 CNS) of the same compound?
**A.** The TGI was greater than 100 µM.

**Q.** And the TGI (ACHN renal)?
**A.** Its TGI is greater than 100 µM.

**Q.** What about the TGI (HCT-15 colon) of the same compound?
**A.** The TGI was greater than 100 µM.

**Q.** And the TGI (DLD-1 colon)?
**A.** Its TGI is greater than 100 µM.

**Q.** And the TGI (SR leukemia)?
**A.** The TGI was greater than 100 µM.

**Q.** What about the TGI (LOX IMVI melanoma) of the same compound?
**A.** Its TGI is greater than 100 µM.

**Q.** What about the TGI (M19-MEL melanoma) of the same compound?
**A.** Its TGI is greater than 100 µM.

**Q.** And the TGI (HCT-116 colon)?
**A.** The TGI was greater than 100 µM.

**Q.** What about the TGI (HT29 colon) of the same compound?
**A.** Its TGI is greater than 100 µM.

**Q.** What about the TGI (OVCAR-5 ovarian) of the same compound?
**A.** The TGI was greater than 100 µM.

**Q.** What about the TGI (SK-OV-3 ovarian) of the same compound?
**A.** The TGI was greater than 100 µM.

**Q.** What about the TGI (DMS 114 small cell lung) of the same compound?
**A.** The TGI was greater than 100 µM.

**Q.** And the TGI (HOP-92 NSCLC)?
**A.** Its TGI is greater than 100 µM.

**Q.** What about the TGI (HOP-62 NSCLC) of the same compound?
**A.** Its TGI is greater than 100 µM.

**Q.** What about the TGI (SNB-19 CNS) of the same compound?
**A.** Its TGI is greater than 100 µM.

**Q.** What about the TGI (RXF 393 renal) of the same compound?
**A.** Its TGI is greater than 100 µM.

**Q.** What about the TGI (NCI-H23 lung) of the same compound?
**A.** Its TGI is greater than 100 µM.

**Q.** And the TGI (NCI-H522 lung)?
**A.** The TGI was greater than 100 µM.

**Q.** And the TGI (HL-60(TB) leukemia)?
**A.** The TGI was greater than 100 µM.

**Q.** And the TGI (LXFL 529 NSCLC)?
**A.** The TGI was greater than 100 µM.

**Q.** What about the TGI (OVCAR-3 ovarian) of the same compound?
**A.** The TGI was greater than 100 µM.

**Q.** What about the TGI (DMS 273 small cell lung) of the same compound?
**A.** Its TGI is greater than 100 µM.

**Q.** What about the TGI (SK-MEL-5 melanoma) of the same compound?
**A.** Its TGI is greater than 100 µM.

**Q.** And the TGI (UACC-62 melanoma)?
**A.** Its TGI is greater than 100 µM.

**Q.** And the TGI (KM12 colon)?
**A.** Its TGI is greater than 100 µM.

**Q.** What about the TGI (TK-10 renal) of the same compound?
**A.** The TGI was greater than 100 µM.

**Q.** And the TGI (KM20L2 colon)?
**A.** Its TGI is greater than 100 µM.

**Q.** And the TGI (SF-268 CNS)?
**A.** Its TGI is greater than 100 µM.

**Q.** And the TGI (EKVX NSCLC)?
**A.** The TGI was greater than 100 µM.

**Q.** What about the TGI (IGROV1 ovarian) of the same compound?
**A.** Its TGI is greater than 100 µM.

**Q.** What about the TGI (NCI-H226 lung) of the same compound?
**A.** Its TGI is greater than 100 µM.
